Test results reported in PubChem BioAssay (NCI).
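Compound exposure: 48 hours, 5 concentrations, 96-well plates. GI50 is the concentration that inhibits growth by half. The concentration for full growth arrest is given as TGI.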

Legend:
Assay in all cases: NCI-60 cell line screen, 48 h
[1] = test system: DMS 114 small cell lung
[2] = test system: SK-MEL-2 melanoma
[3] = test system: M19-MEL melanoma
[4] = test system: ACHN renal
[5] = test system: COLO 205 colon
[6] = test system: HOP-62 NSCLC
[7] = test system: SK-MEL-28 melanoma
[8] = test system: SNB-75 CNS
[9] = test system: MDA-MB-435
[10] = test system: T-47D breast

SMILES | TGI [1] [µM] | TGI [2] [µM] | TGI [3] [µM] | TGI [4] [µM] | TGI [5] [µM] | TGI [6] [µM] | TGI [7] [µM] | TGI [8] [µM] | GI50 [1] [µM] | GI50 [2] [µM] | GI50 [3] [µM] | GI50 [4] [µM] | GI50 [9] [µM] | TGI [9] [µM] | GI50 [5] [µM] | GI50 [6] [µM] | GI50 [10] [µM] | TGI [10] [µM] | GI50 [7] [µM] | GI50 [8] [µM]
O=C1N=C2Sc3ccc4ccccc4c3N2C1=O | > 100 | 71.9 | > 100 | 82.3 | > 100 | 39.8 | 56.3 | 40.7 | – | – | – | – | – | – | – | – | – | – | – | –
O=C(CC1C(=O)Nc2ccccc2S1=O)Nc1cc(Cl)ccc1Cl (stereo unspecified) | > 100 | > 100 | > 100 | > 100 | – | – | > 100 | > 100 | – | – | – | – | – | – | – | – | – | – | – | –
O=[N+]([O-])c1ccc2occ3c2c1CCC3 | > 100 | > 100 | > 100 | > 100 | > 100 | > 100 | > 100 | > 100 | – | – | – | – | – | – | – | – | – | – | – | –
N#CC(C(=O)/C(=N\NC(N)=O)C(C#N)c1ccc(Cl)cc1)c1ccc(Cl)cc1 (stereo unspecified) | > 100 | > 100 | > 100 | > 100 | > 100 | > 100 | > 100 | – | – | – | – | – | – | – | – | – | – | – | – | –
Cc1nc(Nc2ccc(Cl)cc2)sc1C(=O)NNC(=S)NN | 39 | 33.4 | 40.7 | 45.7 | 43.6 | 33 | 35 | 64.3 | – | – | – | – | – | – | – | – | – | – | – | –
CCC[CH2][Sn]([CH2]CCC)([O]C(=O)c1ccc(OC)c(OC)c1OC)[O][Sn]([CH2]CCC)([CH2]CCC)[O]C(=O)c1ccc(OC)c(OC)c1OC | 0.171 | 0.48 | 1.05 | 0.583 | 0.917 | 2.98 | 0.723 | 0.744 | 0.0281 | 0.16 | 0.21 | 0.259 | 0.579 | 1.9 | 0.27 | 1.61 | 0.0311 | 0.295 | 0.25 | 0.177
Cc1ccc2nc(/C(=C/c3ccc(/C=C(\NC(=O)c4ccccc4)c4nc5ccc(C)cc5[nH]4)c(C)c3)NC(=O)c3ccccc3)[nH]c2c1 | 69.6 | 33.3 | 44.8 | > 100 | 80.4 | > 100 | 44.1 | > 100 | – | – | – | – | – | – | – | – | – | – | – | –
C=CCCCCC1CCC2CCC(CCCCC=C)N12 (stereo unspecified) | 31.3 | 22.9 | 37.3 | 28.5 | 32.5 | 33 | 32.2 | 43.1 | – | – | – | – | – | – | – | – | – | – | – | –
c1ccc2c(OCCSCCCCCCCCCCSCCOc3cccc4ccccc34)cccc2c1 | > 100 | > 100 | > 100 | > 100 | > 100 | > 100 | > 100 | > 100 | – | – | – | – | – | – | – | – | – | – | – | –
CN1CCC(=O)/C(=C/c2ccccc2)C1 | 24 | 42.1 | 18.4 | 32.4 | 28.3 | 40.2 | 32.7 | 20.8 | – | – | – | – | – | – | – | – | – | – | – | –
COC1C(OC(=S)Nc2ccccc2)c2ccccc2N1C(C)=O (stereo unspecified) | > 100 | > 100 | > 100 | > 100 | > 100 | > 100 | > 100 | > 100 | – | – | – | – | – | – | – | – | – | – | – | –
CC(C)(C)c1cc(C(P(=O)(O)O)P(=O)(O)O)cc(C(C)(C)C)c1O | > 100 | > 100 | > 100 | > 100 | – | > 100 | > 100 | > 100 | – | – | – | – | – | – | – | – | – | – | – | –
CC12CCC(=O)C[C@H]1CCC(OC=O)C2Br (stereo partly specified) | > 100 | > 100 | > 100 | > 100 | > 100 | > 100 | > 100 | > 100 | – | – | – | – | – | – | – | – | – | – | – | –
O=C1CCC2(c3ccc(Cl)cc3)Nc3cc(Cl)ccc3N12 (stereo unspecified) | 21 | 23.8 | 25.5 | 24 | 18 | 29.2 | 25.3 | 27.7 | – | – | – | – | – | – | – | – | – | – | – | –
CCOC(=O)c1nc2c(OC)nn(O)cc-2c1[N+](=O)[O-] | 48.4 | 34.9 | 89.2 | 31 | 61.9 | > 100 | 29.9 | – | – | – | – | – | – | – | – | – | – | – | – | –
COCC(OC)C(CC=C(C#N)C#N)OC (stereo unspecified) | > 100 | > 100 | > 100 | > 100 | > 100 | > 100 | > 100 | – | – | – | – | – | – | – | – | – | – | – | – | –
Cc1cc2c(=O)c3ccccc3[nH]c2c(C(N)=O)c1C | > 100 | > 100 | > 100 | > 100 | > 100 | – | > 100 | > 100 | – | – | – | – | – | – | – | – | – | – | – | –
COc1ccc(OCC(=O)O)c2c1CCCC2=O | > 100 | > 100 | > 100 | > 100 | > 100 | > 100 | > 100 | > 100 | – | – | – | – | – | – | – | – | – | – | – | –
C#CC1/C(=C\C(=O)OC)CCCC1O (stereo unspecified) | > 100 | > 100 | > 100 | > 100 | > 100 | > 100 | – | > 100 | – | – | – | – | – | – | – | – | – | – | – | –
